According to US20090098050A1, “CALCIUM BINDING PEPTIDES” (THE REGENTS OF THE UNVERSITY OF CALIFORNIA, priority 2005, published 2009):
No end group written: not given here.

Tests used:
[1] = Binding of fluorescein-labeled peptides to hydroxyapatite nanocrystals (Langmuir isotherm); conditions: Langmuir fit; for KA, affinity constant of the peptide for the hydroxyapatite surface: fluorescein-labeled peptide 0-100 μM, 0.3 mg hydroxyapatite, ten minutes
Description: FIG. 1: Binding affinities of DSS and DSS variant peptides for hydroxyapatite and tooth surfaces. A-C. Fluorescein-labeled peptides at concentrations ranging from 0-100 μM were incubated with 0.3 mg of hydroxyapatite nanocrystals (specific surface area=100 m^2/g) for ten minutes, followed by removal of the hydroxyapatite by centrifugation. The amount of peptide in the mixture before and after hydroxyapatite removal was determined by Abs480. Isotherms were plotted and fit to the Langmuir equation to extract values for KA, a constant reflecting the affinity of the peptide for the hydroxyapatite surface. D. Sagitally sectioned human teeth were incubated with 12.5 μM 5(6) carboxyfluorescein-labeled 6DSS peptide for ten minutes, followed by rinsing. Peptide binding to tooth surfaces was visualized by Confocal Laser Scanning Microscopy (CLSM) using blue laser illumination (λA=488 nm) and a FITC emission filter. Left side, light colored region: dentin. Right side, dark colored region: enamel.
Four DSS peptides containing two (2DSS, SEQ ID NO:12), four (4DSS, SEQ ID NO:13), six (6DSS, SEQ ID NO:14), or eight(8DSS, SEQ ID NO:15) Asp-Ser-Ser (DSS) repeats were generated. Peptides were labeled with fluorescein, and various concentrations of the labeled peptides (0-100 μM) were mixed with a fixed amount (0.3 mg) of hydroxyapatite nanocrystals having a specific surface area of 100 m^2/g (Berkeley Advanced Biomaterials, Inc.). Samples were incubated for ten minutes, followed by removal of the hydroxyapatite by centrifugation. The amount of peptide in the mixture was measured both before and after hydroxyapatite removal by spectroscopic absorbance at 480 nm (the peak absorbance of the fluorescein label). The amount of peptide bound was calculated by comparing the ratio of the final (Af) and initial (Ai) absorbances to the initial concentration (P0) [Pbound=[…]]. Plots were generated illustrating the amount of peptide bound per m^2 of hydroxyapatite surface area versus concentration of unbound peptide at equilibrium. The resulting isotherms were fit to the Langmuir isotherm (x/m=(KANMaxCeq)/(1+KACeq)) (Calis 1995), which describes the binding activity of a molecule in terms of a combination of binding affinity (KA) and avidity (NMax). KA represents the affinity constant of the peptide for the hydroxyapatite surface. In this equation, x/m represents the molar amount of peptide bound per unit of hydroxyapatite surface area, NMax represents the maximum surface concentration (mol/m^2), and Ceq represents the molar concentration of unbound peptide at equilibrium. The Langmuir isotherm describes the binding of molecules to surfaces with the conditions that 1) all binding sites have the same affinity for the peptide, and 2) the peptide will form a monolayer on the surface but cannot accumulate to higher levels. The excellent fit of the Langmuir isotherm to the experimental data validates these conditions, and these affinity constants were used for comparisons between peptides.

[2] = Tissue specific binding of DSS peptides and variants in human teeth (CLSM); conditions: 12.5 μM labeled peptide; for Tissue binding pattern in healthy tooth section: nondemineralized teeth
Description: FIG. 8: Fluorescence micrographs showing tissue specificity in the binding of DSS peptides and variants. Adult human teeth were exposed to 12.5 μM 5(6)-carboxyfluorescein-labeled peptide without demineralization, washed extensively, and imaged by CLSM. For each section, multiple scans were collected and assembled in an automated mode to generate panels of images representing an area of 13×13 mm, sufficient in most cases to encompass the whole section. The peptides used for each section are labeled beneath each panel, and within each panel the tooth is oriented with the root toward the top of the image and the crown toward the bottom. Tissue layers are labeled as follows: RTD=Root Tip Dentin; CPD=Circumpulpal Dentin; MD=Mantle Dentin; P=Pulp Cavity Wall; DEJ=Dentin-Enamel Junction; E=Enamel; BE=Basal Enamel; CE=Cortical Enamel; CL=Carious Lesion; PB=Periodontal Bone.
In order to investigate the tissue specificity of DSS peptide binding to tooth tissue, sections of human teeth were exposed to DSS peptides and variants, then imaged by CLSM as described in Example 2. The peptides utilized for these experiments were 8DSS, 8ASS, 8DAA, 8NAA, 4DSS, 4ESS, 4NSS, 4DTT, 4ETT, 4NTT, and 6DSS. Sagittal sections of human teeth extracted during normal clinical practice were polished and then incubated for ten minutes in a solution of the appropriate 5(6) carboxyfluorescein-labeled peptide (12.5 μM) containing 10 mM NaCl and 50 mM HEPES, pH 7.0. Control samples were prepared without peptide. Samples were washed extensively after treatment and imaged by CLSM using blue laser illumination (λ=488 nm) and a FITC emission filter, with identical camera and microscope settings for each sample. For each section, multiple scans were collected and assembled in an automated mode to generate panels of images representing an area of 13×13 mm, sufficient in most cases to encompass the whole section. […] Significant binding was also seen to the edges of the pulp cavity.

[3] = Preferential binding to carious lesions in teeth (CLSM); set-up: species or system human; conditions: labeled peptide, settings optimized per sample
Description: FIG. 9: Fluorescence micrographs showing specific binding of DSS peptides and variants to carious lesions in teeth. Adult human teeth were exposed to 12.5 uM 5(6)-carboxyfluorescein-labeled peptide without demineralization, washed extensively, and imaged by CLSM. Microscope and camera settings were optimized separately for each sample. […] White traces on the right side of each panel identify the position of the tooth surface, while arrows indicate the position of the stained lesion.
Sections of human teeth containing obvious carious lesions, which consist of demineralized enamel, were polished and exposed to 5(6)-carboxyfluorescein-labeled DSS peptides and variants using the protocol described in Example 2. The sections were washed extensively and imaged by CLSM using blue laser illumination (λ=488 nm) and a FITC emission filter, with microscope and camera settings adjusted for each sample to optimize the signal detected from each peptide. The images were examined to identify the relative levels of peptide binding in healthy versus carious tissue. […] Given their ability to remineralize at sites of enamel degradation (Example 6), they can also be used to initiate remineralization at sites of enamel degradation such as caries or injury sites without causing inappropriate nucleation on healthy tissue surfaces.

Substance	KA, affinity constant of the peptide for the hydroxyapatite surface [1]	NMax, maximum surface concentration (available binding sites on HA surface) [1]	Tissue binding pattern in healthy tooth section [2]	Specificity of binding to carious lesions versus surrounding healthy enamel [3]	Strength of staining of carious lesions [3]	Binding to fragment of periodontal bone attached to the sample [2]	Binding to carious lesion present in the sample [2]
2DSS: peptide containing two Asp-Ser-Ser (DSS) repeats, SEQ ID NO:12 (DSSDSS; calcium binding peptide containing two DSS repeats, 2DSS)	57,000 M^−1	–	–	–	–	–	–
4DSPS: partially phosphorylated four repeat DSS peptide, SEQ ID NO:25 (DSSDSSDSSDSS; also: partially phosphorylated, sites not given here)	83,000 M^−1	1.2×10^−7 mol/m^2	–	–	–	–	–
4DSS: peptide containing four Asp-Ser-Ser (DSS) repeats, SEQ ID NO:13 (DSSDSSDSSDSS; calcium binding peptide containing four DSS repeats, 4DSS, (DSS)-4)	94,000 M^−1	5.8×10^−8 mol/m^2	bound primarily to the mantle dentin	highly specific binding to carious lesions	exceptionally strong staining of carious lesions	–	–
4DTT: four repeat peptide containing more sterically hindered hydroxyl groups at second and third positions, SEQ. ID NO. 17 (DTTDTTDTTDTT; variant DSS four repeat peptide containing more sterically hindered hydroxyl groups at second and third positions, 4DTT)	161,000 M^−1	–	binding patterns similar to those of 4DSS and 4ESS, though at sharply reduced levels	–	–	–	–
4ESS: four repeat peptide containing a longer sidechain at the first position, SEQ. ID NO. 16 (ESSESSESSESS; variant DSS four repeat peptide containing longer sidechain at first position, 4ESS)	81,000 M^−1	–	–	highly specific binding to carious lesions	exceptionally strong staining of carious lesions	–	–
4ETT: four repeat peptide containing more sterically hindered hydroxyl groups at second and third positions, SEQ. ID NO. 19 (ETTETTETTETT; variant DSS four repeat peptide containing more sterically hindered hydroxyl groups at second and third positions, 4ETT)	61,000 M^−1	–	binding patterns similar to those of 4DSS and 4ESS, though at sharply reduced levels	highly specific binding to carious lesions	–	–	–
4NAA: label printed only in b88, not defined; probably a misprint (NAANAANAANAA; variant DSS four repeat peptide lacking hydroxyl group at seond and third positions, 4NAA)	–	–	–	–	exceptionally strong staining of carious lesions	–	–
4NSS: four repeat peptide lacking a charged group at the first position, SEQ. ID NO. 20 (NSSNSSNSSNSS; variant DSS four repeat peptide lacking negatively charged group at first position, 4NSS)	41,000 M^−1	–	–	highly specific binding to carious lesions	–	–	–
4NTT: four repeat peptide containing more sterically hindered hydroxyl groups at second and third positions, SEQ. ID NO. 18 (NTTNTTNTTNTT; variant DSS four repeat peptide containing more sterically hindered hydroxyl groups at second and third positions, 4NTT)	18,000 M^−1	–	very low levels of binding to the healthy tooth tissue	–	–	strong binding	–
8ASS: eight repeat peptide lacking a charged group at the first position, SEQ. ID NO. 21 (ASSASSASSASSASSASSASSASS; variant DSS eight repeat peptide lacking negatively charged group at first position, 8ASS)	170,000 M^−1	–	–	highly specific binding to carious lesions	exceptionally strong staining of carious lesions	–	–
8DAA: eight repeat peptide lacking hydroxyl groups at the second and third positions, SEQ. ID NO. 22 (DAADAADAADAADAADAADAADAA; variant DSS eight repeat peptide lacking hydroxyl group at seond and third positions, 8DAA)	300,000 M^−1	–	primary binding to the root tip dentin and cortical enamel, as well as to the dentin-enamel junction and the pulp cavity wall	highly specific binding to carious lesions	exceptionally strong staining of carious lesions	–	–
8NAA: eight repeat peptide lacking hydroxyl groups at the second and third positions, SEQ. ID NO. 23 (NAANAANAANAANAANAANAANAA; variant DSS eight repeat peptide lacking hydroxyl group at seond and third positions, 8NAA)	20,000 M^−1	–	very little binding to any healthy tissue	highly specific binding to carious lesions	–	–	did bind somewhat to a carious lesion
